Test results published in ChEMBL document CHEMBL5223117, “Synthesis and biological evaluation of novel N, N'-diarylurea derivatives as potent antibacterial agents against MRSA” (Bioorg Med Chem Lett, 2022).
Activity calls are given as the source filed them.

Assays:
Type in all cases: functional
Staphylococcus aureus [1] = test: Antibacterial activity against vancomycin intermediate and methicillin resistant Staphylococcus aureus ATCC 700698
Staphylococcus aureus [2] = test: Antibacterial activity against methicillin sensitive Staphylococcus aureus 15
Staphylococcus aureus [3] = test: Antibacterial activity against vancomycin intermediate and methicillin resistant Staphylococcus aureus ATCC 700699
[4] = test system: Staphylococcus epidermidis; test: Antibacterial activity against methicillin sensitive Staphylococcus epidermidis 17-13
Staphylococcus aureus [5] = test: Antibacterial activity against methicillin resistant Staphylococcus aureus 20-11
[6] = test system: Staphylococcus epidermidis; test: Antibacterial activity against methicillin resistant Staphylococcus epidermidis 19-2
Staphylococcus aureus [7] = test: Antibacterial activity against methicillin sensitive Staphylococcus aureus ATCC 29213
[8] = test system: Staphylococcus epidermidis; test: Antibacterial activity against methicillin resistant Staphylococcus epidermidis 19-1
[9] = test system: Staphylococcus epidermidis; test: Antibacterial activity against methicillin sensitive Staphylococcus epidermidis ATCC 12228
Staphylococcus aureus [10] = test: Antibacterial activity against methicillin resistant Staphylococcus aureus ATCC 43300
Staphylococcus aureus [11] = test: Antibacterial activity against methicillin resistant Staphylococcus aureus 18-2
Staphylococcus aureus [12] = test: Antibacterial activity against methicillin sensitive Staphylococcus aureus 20-12
Staphylococcus aureus [13] = test: Antibacterial activity against methicillin sensitive Staphylococcus aureus ATCC 33591
Enterococcus faecium [14] = test: Antibacterial activity against Vanomycin-resistant Enterococcus faecium ATCC 51559
Enterococcus faecalis [15] = test: Antibacterial activity against Vanomycin-resistant Enterococcus faecalis ATCC 51575
Enterococcus faecalis [16] = test: Antibacterial activity against Vanomycin-resistant Enterococcus faecalis ATCC 51299
Enterococcus faecium [17] = test: Antibacterial activity against Vanomycin-resistant Enterococcus faecium ATCC 700221
Enterococcus faecium [18] = test: Antibacterial activity against Vanomycin-resistant Enterococcus faecium 15-6

Measured: MIC

CNC(=O)c1cc(Oc2ccc(N3CCN(c4ccc(Cl)c(C(F)(F)F)c4)C3=O)cc2)ccn1
inactive: Staphylococcus aureus [1] | Staphylococcus aureus [2] | Staphylococcus aureus [3] | [4] | Staphylococcus aureus [5] | [6] | Staphylococcus aureus [7] | [8] | [9] | Staphylococcus aureus [10]

CN(C(=O)Nc1cccc(Cl)c1F)c1ccc(Cl)c(C(F)(F)F)c1
not listed: Enterococcus faecium [14] | Enterococcus faecalis [15] | Enterococcus faecalis [16] | Enterococcus faecium [17] | Enterococcus faecium [18]
inactive: all other assays above

COc1ccc(NC(=O)Nc2ccc(Cl)c(C(F)(F)F)c2)cc1
inactive: Staphylococcus aureus [1] | Staphylococcus aureus [2] | Staphylococcus aureus [3] | [4] | Staphylococcus aureus [5] | [6] | Staphylococcus aureus [7] | [8] | [9] | Staphylococcus aureus [10]

O=C(Nc1ccc(Cl)c(C(F)(F)F)c1)Nc1cc(Cl)c(F)cc1F
1.3 µM: Staphylococcus aureus [2] | [6] | Staphylococcus aureus [13]
10.4 µM: Enterococcus faecalis [15]
5.19 µM: Enterococcus faecium [14] | Enterococcus faecium [17] | Enterococcus faecium [18]
20.8 µM: Enterococcus faecalis [16]
2.6 µM: all other assays above

CNC(=O)c1cc(Oc2ccc(NC(=O)Nc3cc(C(F)(F)F)ccc3OC)cc2)ccn1
inactive: Staphylococcus aureus [1] | Staphylococcus aureus [2] | Staphylococcus aureus [3] | [4] | Staphylococcus aureus [5] | [6] | Staphylococcus aureus [7] | [8] | [9] | Staphylococcus aureus [10]

O=C1N(c2ccc(O)cc2)CCN1c1ccc(Cl)c(C(F)(F)F)c1
inactive: Staphylococcus aureus [1] | Staphylococcus aureus [2] | Staphylococcus aureus [3] | [4] | Staphylococcus aureus [5] | [6] | Staphylococcus aureus [7] | [8] | [9] | Staphylococcus aureus [10]

O=C(Nc1ccc(Cl)c(C(F)(F)F)c1)Nc1cc(F)c(F)cc1Cl
10.4 µM: Enterococcus faecalis [15] | Enterococcus faecalis [16]
0.65 µM: Staphylococcus aureus [3] | [4] | [6] | Staphylococcus aureus [13]
5.19 µM: Enterococcus faecium [14] | Enterococcus faecium [17]
2.6 µM: Enterococcus faecium [18]
1.3 µM: all other assays above

O=C(Nc1ccc2c(c1)OCO2)Nc1ccc(Cl)c(C(F)(F)F)c1
22.3 µM: Staphylococcus aureus [2] | Staphylococcus aureus [3] | [4] | [6] | [8] | [9]
357 µM: Staphylococcus aureus [10]
44.6 µM: Staphylococcus aureus [1] | Staphylococcus aureus [5] | Staphylococcus aureus [7]

O=C(Nc1ccc(Cl)c(F)c1)Nc1ccc(Cl)c(C(F)(F)F)c1
1.36 µM: Staphylococcus aureus [3] | [6] | [8] | Staphylococcus aureus [13]
5.45 µM: Enterococcus faecium [17]
10.9 µM: Enterococcus faecium [14] | Enterococcus faecalis [15] | Enterococcus faecium [18]
21.8 µM: Enterococcus faecalis [16]
2.72 µM: all other assays above

O=C(Nc1ccc(F)cc1)Nc1ccc(Cl)c(C(F)(F)F)c1
48.1 µM: Enterococcus faecium [17] | Enterococcus faecium [18]
3.01 µM: Staphylococcus aureus [3]
192 µM: Enterococcus faecalis [15] | Enterococcus faecalis [16]
96.2 µM: Enterococcus faecium [14]
12 µM: Staphylococcus aureus [1] | Staphylococcus aureus [5] | Staphylococcus aureus [7] | Staphylococcus aureus [12] | Staphylococcus aureus [10]
6.01 µM: all other assays above

O=C(Nc1ccc(C(F)(F)F)cc1)Nc1ccc(Cl)c(C(F)(F)F)c1
41.8 µM: Enterococcus faecium [14] | Enterococcus faecalis [16] | Enterococcus faecium [17]
10.4 µM: Staphylococcus aureus [2] | Staphylococcus aureus [11] | Staphylococcus aureus [3] | [6] | [8] | Staphylococcus aureus [13]
20.9 µM: all other assays above

CNC(=O)c1cc(Oc2ccc(NC(=O)Nc3cc(C(F)(F)F)ccc3Cl)cc2)ccn1
inactive: Staphylococcus aureus [1] | Staphylococcus aureus [2] | Staphylococcus aureus [3] | [4] | Staphylococcus aureus [5] | [6] | Staphylococcus aureus [7] | [8] | [9] | Staphylococcus aureus [10]

C[C@H]1COc2c(N3CCN(C)CC3)c(F)cc3c(=O)c(C(=O)O)cn1c23 [LEVOFLOXACIN]
88.5 µM: Enterococcus faecium [14]
22.1 µM: Staphylococcus aureus [1] | Staphylococcus aureus [3]
2.77 µM: Enterococcus faecalis [15]
177 µM: Staphylococcus aureus [11] | Enterococcus faecium [17] | Enterococcus faecium [18]
11.1 µM: [6] | [8]
1.38 µM: Staphylococcus aureus [5] | Enterococcus faecalis [16] | Staphylococcus aureus [12] | Staphylococcus aureus [10]
0.69 µM: all other assays above

CN(C(=O)Nc1ccc(Cl)c(C(F)(F)F)c1)c1cccc(Cl)c1F
not listed: Enterococcus faecium [14] | Enterococcus faecalis [15] | Enterococcus faecalis [16] | Enterococcus faecium [17] | Enterococcus faecium [18]
inactive: all other assays above

CNC(=O)c1cc(Oc2ccc(NC(=O)N3CCN(c4ccc(Cl)c(C(F)(F)F)c4)C3=O)cc2)ccn1
not listed: Enterococcus faecium [14] | Enterococcus faecalis [15] | Enterococcus faecalis [16] | Enterococcus faecium [17] | Enterococcus faecium [18]
inactive: all other assays above

CNC(=O)c1cc(Oc2ccc(NC(=O)Nc3cccc(C(F)(F)F)c3)cc2)ccn1
149 µM: Staphylococcus aureus [2] | [8] | [9]
inactive: Staphylococcus aureus [1] | Staphylococcus aureus [3] | [4] | Staphylococcus aureus [5] | [6] | Staphylococcus aureus [7] | Staphylococcus aureus [10]
